Measurements from US11241453B2, “Arsenic compositions” (Eupharma Pty Ltd, priority 2016, dated 2022).
Where “and” joins values, the source holds several entries; their conditions need not be identical. Equal values may be shown once. Read-outs that look alike come from different tables or passages of the source.

Tests used:
[1] = cited from earlier work
[2] = cited from earlier work; remark: listed apart in the source
[3] = Dissolution in near neutral solution at pH 6.5; assay type: physicochemical; settings: for Time until capsule opens: pH 6.5, 150 mls, 37° C., stirred
Description: Dissolution experiments were carried out on NaHAs2O4 at 2 different pH levels. Firstly, simulated gastric fluid (pH 1.24) was used, then a near neutral solution at pH 6.5. Prior to addition of the capsules, 150 mls of the dissolution solution was heated to 37° C. and the solution contained a spin bar at a speed of 2. The appropriate capsule was then added.

[4] = assay type: physicochemical
[5] = gelatin capsule in 150 mL simulated gastric solution, approx. pH 1.2, 37° C.

Substance: arsenic trioxide
- Solubility (in words) ([1]; neutral pH): only slightly soluble
- Solubility in water (in words) ([1]; physiological or acidic pH): only sparingly soluble
- Time required for complete dissolution ([2]; 0.1 M NaOH): 15 to 20 min
- Dissolution (in words) ([2]; in vitro, strong stirring, low pH): very slow process

Substance: sodium diarsenic tetraoxide [NaHAs2O4]
- Time until capsule opens ([3]; 1 mg capsule): 50 s and 45 s
- Time until capsule opens ([3]; 10 mg capsule): 55 s and 50 s
- Time until powder was completely dissolved ([3]; near neutral solution pH 6.5, 37° C.): less than two minutes
- Time to dissolve ([3]; pH 7): well under a minute
- Time until capsule opens ([4]; 10 mg capsule, pH 1.24, 150 mls, 37° C., stirred): 35 s and 40 s
- Time to complete dissolution in gastric juices [4]: less than 1 min
- Time to complete dissolution in gastric juices ([4]; 'even less than'): less than 30 seconds
- Time until capsule shell had dissolved [4, 5]: less than or about one minute
- Time until contents had completely dissolved [4, 5]: ≤ 2 min
- Time to dissolve ([4]; pH about 1): less than 10 seconds
- Time until powder was completely dissolved ([4]; simulated gastric fluid pH 1.24, 37° C.): less than two minutes
- Dissolution in stomach acid (in words) ([4]; stomach acid): very rapidly dissolved in stomach acid without any precipitation
